Assays:
[1] = Organoleptic test of cooling action in confectioner's fondant by a panel of experts; format: in vivo; settings: 0.05 wt. % relative to the overall preparation, scale from 1 (no cooling action) to 9 (extremely strong cooling action)
Experimental: The compounds were tested for their organoleptic properties, in particular their cooling action. To this end, they were dissolved, in each case in a specific final concentration, in a mass prepared from sucrose (saccharose) and water (confectioner's fondant, supplier Nordzucker A G, Nordstemmen) and evaluated by a panel of experts. Sensory impressions were rated and the cooling action was assessed on a scale from 1 (no cooling action) to 9 (extremely strong cooling action).

[2] = study of approx. 1200 compounds; cited from earlier work
[3] = forms the free acid N-(L-menthanecarbonyl)glycine; cited from earlier work

**Q.** Which cooling action [1] does the source give for CC(C)CNC(=O)CNC(=O)[C@@H]1C[C@H](C)CC[C@H]1C(C)C [Example 1, L-N^α-(menthanecarboxyl)glycine-N-isobutylamide] here?
**A.** 5

**Q.** Which “cooling action (literature)” value [2] does the source give for CC1CCC(C(C)C)C(C(=O)NCC(=O)O)C1 [N-(L-menthanecarbonyl)glycine] here?
**A.** very weak cooling action

**Q.** Which “cooling action (literature)” value [2] does the source give for CCNC(=O)C1CC(C)CCC1C(C)C [WS3, L-menthane carboxylic acid N-ethylamide] here?
**A.** most strongly cooling active ingredients

**Q.** Which susceptibility to hydrolysis [3] does the source give for CCOC(=O)CNC(=O)C1CC(C)CCC1C(C)C [WS5, N^α-(L-menthanecarbonyl)glycine ethyl ester] here?
**A.** susceptible to hydrolysis

**Q.** And the “cooling action (literature)” value [2]?
**A.** most strongly cooling active ingredients

— patent US20080096969A1, “N alpha-(Menthanecarbonyl)amino acid amides and use thereof as physiological cooling active ingredients” (SYMRISE GMBH & CO. KG, priority 2006, published 2008)
